Data as given in patent US20260125346A1, “Isoquinolinone Derivatives and 4H-Quinolizinone Derivatives and Pharmaceutical Compositions Thereof for the Treatment of Disease” (BeOne Medicines I GmbH, priority 2023, published 2026).
pIC50: −log10 of the molar value.

Columns and labels:
Type in all cases: cell-based
[1] = system: PI3Kα H1047R mutated cell line T-47D cells; assay: Cell Proliferation Assay (CellTiter-Glo), T-47D; conditions: for pIC50: Homo sapiens, T47D, 72 h, T-47D, 3 days treatment; for Selectivity: SK-BR-3/T-47D (cell proliferation): cell proliferation IC50 ratio
Protocol: Cell Culture Maintenance. The T-47D (ATCC, HTB-133) cell line was obtained from the American Type Culture Collection. Cells were maintained in RPMI1640 medium (Gibco, REF #22400105) supplemented with 10% Fetal Bovine Serum (Gibco, REF #10091148). Cultures were maintained in a humidified incubator at 37° C. under 5% CO2/95% air.
(§1) Cell Proliferation Assay. PI3Kα H1047R mutated cell line T-47D cells and WT cell line SK-BR-3 were seeded at a density of 3×10^3 cells per well in 96 well plate (Xinyou Biotechnology, 062096) in 95 μL of culture medium, overnight. Compounds dissolved in 10 mM stock solutions in DMSO were serially diluted 1:3 in DMSO to generate a 9-point dilution series and plated using an INTEGRA ASSIST Plus pipetting robot. A 20× intermediate compound dilution plate in RPMI1640 medium (200 M starting compound concentration in 2% DMSO) was then prepared. Five μL of intermediate serially diluted compounds were added to the cell plate to final concentrations ranging from […] to 1 nM in 0.1% DMSO. 0.1% DMSO alone was used to establish the maximum signal and medium without cells was for minimum signal. After 3 days treatment, equilibrated the plate and its contents at room temperature for approximately 30 minutes. Added 30 μL CellTiter-Glo® Reagent (Promega, REF #G7571) to each well. Then mixed contents for 5 min on plate shaker to induce cell lysis. Incubated at room temperature for 10 minutes to stabilize luminescent signal. The plates were read on PHERAstar FSX Microplate reader using standard luminescence settings.
(§2) Relative IC50 values were determined using luminescence units by calculating percent inhibition with respect to the in-plate “MIN” (medium only) and “MAX” (0.1% DMSO) controls. The data were analyzed using a 4-parameter nonlinear logistic equation (four-parameter logistic concentration-response curve): Y=bottom+[(top−bottom)/1+(X/IC50) slope] • where Y=% inhibition, X=concentration of inhibitor, bottom=minimum value of y attained by curve-fit, top=maximum value of y attained by curve-fit and slope=steepness of curve at the IC50.

[2] = system: PI3Kα H1047R mutated cell line T-47D; assay: Phospho-AKT (Ser473) Inhibition Assay (HTRF), T-47D; conditions: for pIC50: Homo sapiens, T47D, T-47D, 1 hour treatment, read-out: p-AKT Inhibition assay (S473) IC50 T-47D; for Selectivity: SK-BR-3/T-47D (p-AKT): p-AKT (S473) IC50 ratio
Summary of the method: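 Cells seeded overnight in insulin-supplemented MEM, then treated 1 h with 11-point 1:3 compound dilutions (10 μM to 0.1 nM final, 0.1% DMSO). Lysates assayed for phospho-AKT Ser473 by HTRF; IC50 from 4-parameter logistic fit, normalised to DMSO (max) and 10 μM GDC0077 (min).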

WT cell line SK-BR-3 = assay: Cell Proliferation Assay (CellTiter-Glo), SK-BR-3; conditions: Homo sapiens, 72 h; SK-BR-3, 3 days treatment
Protocol: The SK-BR-3 (ATCC, HTB-30) cell line was obtained from the American Type Culture Collection. Cells were maintained in McCoy' 5A medium (Gibco, REF #16600108) supplemented with 10% Fetal Bovine Serum. Cultures were maintained in a humidified incubator at 37° C. under 5% CO2/95% air.
as §1, §2

Row | SMILES | pIC50 [1] | Selectivity: SK-BR-3/T-47D (cell proliferation) [1] | pIC50 [2] | Selectivity: SK-BR-3/T-47D (p-AKT) [2] | pIC50 (WT cell line SK-BR-3)
1 | Cc1cc(C(C)Nc2ccccc2C(=O)O)c2cc(-c3nc4ccccc4s3)n(C)c(=O)c2c1 (centres unmarked) [Example 17, 2-((1-(3-(benzo[d]thiazol-2-yl)-2,7-dimethyl-1-oxo-1,2-dihydroisoquinolin-5-yl)ethyl)amino)benzoic acid] | 6.13 | >13 | 7.23 | 13.5 | < 5.00
2 | Cc1cc(C(C)Nc2ccccc2C(=O)O)c2cc(-c3ccc4nc(C)sc4c3)n(C)c(=O)c2c1 (centres unmarked) [Example 18, 2-((1-(2,7-dimethyl-3-(2-methylbenzo[d]thiazol-6-yl)-1-oxo-1,2-dihydroisoquinolin-5-yl)ethyl)amino)benzoic acid] | 6.65 | >45 | 7.07 | 27.3 | < 5.00
3 | Cc1cc(C(C)Nc2ccccc2C(=O)O)c2cc(-c3ccc4nn(C)cc4c3)n(C)c(=O)c2c1 (centres unmarked) [Example 19, 2-((1-(2,7-dimethyl-3-(2-methyl-2H-indazol-5-yl)-1-oxo-1,2-dihydroisoquinolin-5-yl)ethyl)amino)benzoic acid] | 6.94 | >86 | 6.78 | 13.8 | < 5.00
4 | CC(Nc1ccccc1C(=O)O)c1cccc2c(=O)n(C)c(-c3ccccc3)cc12 (centres unmarked) [Example 20, 2-((1-(2-methyl-1-oxo-3-phenyl-1,2-dihydroisoquinolin-5-yl)ethyl)amino)benzoic acid] | 6.03 | >10.7 | 7.62 | >416 | < 5.00
5 | CC(Nc1ccccc1C(=O)O)c1cccc2c(=O)n(C)c(C#Cc3ccccc3)cc12 (centres unmarked) [Example 21, 2-((1-(2-methyl-1-oxo-3-(phenylethynyl)-1,2-dihydroisoquinolin-5-yl)ethyl)amino)benzoic acid] | 5.59 | >3.93 | 7.45 | 165.3 | < 5.00
6 | Cc1cc(C(C)Nc2ccccc2C(=O)O)c2cc(-c3cccc4cn(C)nc34)n(C)c(=O)c2c1 (centres unmarked) [Example 22, 2-((1-(2,7-dimethyl-3-(2-methyl-2H-indazol-7-yl)-1-oxo-1,2-dihydroisoquinolin-5-yl)ethyl)amino)benzoic acid] | < 5.00 | – | 5.76 | >5.7 | < 5.00
7 | Cc1cc(C(C)Nc2ccccc2C(=O)O)c2cc(-c3ccc(-c4cnn(C)c4)cc3)n(C)c(=O)c2c1 (centres unmarked) [Example 23, 2-((1-(2,7-dimethyl-3-(4-(1-methyl-1H-pyrazol-4-yl)phenyl)-1-oxo-1,2-dihydroisoquinolin-5-yl)ethyl)amino)benzoic acid] | 6.83 | >68 | 6.99 | 16.6 | < 5.00
8 | Cc1cc(C(C)Nc2ccccc2C(=O)O)c2cc(NC(=O)c3ccccc3)n(C)c(=O)c2c1 (centres unmarked) [Example 24, 2-((1-(3-benzamido-2,7-dimethyl-1-oxo-1,2-dihydroisoquinolin-5-yl)ethyl)amino)benzoic acid] | 5.03 | >1.07 | 5.50 | >3.1 | < 5.00
9 | CC(Nc1ccccc1C(=O)O)c1cccn2c(=O)cc(-c3ccccc3)cc12 (centres unmarked) [Example 25, 2-((1-(4-oxo-2-phenyl-4H-quinolizin-9-yl)ethyl)amino)benzoic acid] | < 5.00 | – | 6.52 | >33.4 | < 5.00
10 | Cc1cc([C@@H](C)Nc2ccccc2C(=O)O)c2cc(-c3ccccc3)n(C)c(=O)c2c1 [Example 30, (R)-2-((1-(2,7-dimethyl-1-oxo-3-phenyl-1,2-dihydroisoquinolin-5-yl)ethyl)amino)benzoic acid] | 6.75 | >57 | 7.66 | 113.7 | < 5.00
11 | Cc1cc([C@H](C)Nc2ccccc2C(=O)O)c2cc(-c3ccccc3)n(C)c(=O)c2c1 [Example 31, (S)-2-((1-(2,7-dimethyl-1-oxo-3-phenyl-1,2-dihydroisoquinolin-5-yl)ethyl)amino)benzoic acid] | < 5.00 | – | < 5.00 | – | < 5.00
12 | Cc1cc(C(C)Nc2ccccc2C(=O)O)c2cc(-c3ccccc3C#N)n(C)c(=O)c2c1 (centres unmarked) [Example 32, 2-((1-(3-(2-cyanophenyl)-2,7-dimethyl-1-oxo-1,2-dihydroisoquinolin-5-yl)ethyl)amino)benzoic acid] | 5.61 | >4.07 | 6.58 | >38 | < 5.00
13 | Cc1cc(C(C)Nc2cccnc2C(=O)O)c2cc(-c3ccc(F)cc3)n(C)c(=O)c2c1 (centres unmarked) [Example 33, 3-((1-(3-(4-fluorophenyl)-2,7-dimethyl-1-oxo-1,2-dihydroisoquinolin-5-yl)ethyl)amino)picolinic acid] | 5.80 | >6.28 | 6.57 | 36.6 | < 5.00
14 | Cc1cc([C@@H](C)Nc2ccccc2C(=O)O)c2cc(-c3ccc(F)cc3)n(C)c(=O)c2c1 [Example 34, (R)-2-((1-(3-(4-fluorophenyl)-2,7-dimethyl-1-oxo-1,2-dihydroisoquinolin-5-yl)ethyl)amino)benzoic acid] | 6.76 | >57 | 7.69 | >494 | < 5.00
15 | Cc1cc([C@H](C)Nc2ccccc2C(=O)O)c2cc(-c3ccc(F)cc3)n(C)c(=O)c2c1 [Example 35, (S)-2-((1-(3-(4-fluorophenyl)-2,7-dimethyl-1-oxo-1,2-dihydroisoquinolin-5-yl)ethyl)amino)benzoic acid] | < 5.00 | – | < 5.00 | – | < 5.00
16 | Cc1cc(C(C)Nc2ccccc2C(=O)O)c2cc(-c3ccccn3)n(C)c(=O)c2c1 (centres unmarked) [Example 36, 2-((1-(2,7-dimethyl-1-oxo-3-(pyridin-2-yl)-1,2-dihydroisoquinolin-5-yl)ethyl)amino)benzoic acid] | 5.85 | >7.04 | 6.33 | >21 | < 5.00
17 | Cc1cc(C(C)Nc2ccccc2C(=O)O)c2cc(-c3cccnc3)n(C)c(=O)c2c1 (centres unmarked) [Example 37, 2-((1-(2,7-dimethyl-1-oxo-3-(pyridin-3-yl)-1,2-dihydroisoquinolin-5-yl)ethyl)amino)benzoic acid] | 6.77 | >58.3 | 6.42 | >26 | < 5.00
18 | Cc1cc(C(C)Nc2ccccc2C(=O)O)c2cc(-c3cncc(F)c3)n(C)c(=O)c2c1 (centres unmarked) [Example 38, 2-((1-(3-(5-fluoropyridin-3-yl)-2,7-dimethyl-1-oxo-1,2-dihydroisoquinolin-5-yl)ethyl)amino)benzoic acid] | 6.67 | >46 | 6.55 | >35 | < 5.00
19 | Cc1cc(C(C)Nc2ccccc2C(=O)O)c2cc(-c3ccc4nn(C)cc4n3)n(C)c(=O)c2c1 (centres unmarked) [Example 39, 2-((1-(2,7-dimethyl-3-(2-methyl-2H-pyrazolo[4,3-b]pyridin-5-yl)-1-oxo-1,2-dihydroisoquinolin-5-yl)ethyl)amino)benzoic acid] | 6.30 | >20 | 5.95 | 5.6 | < 5.00
